Data reported in BigSolDB 2.1.

C[C@H]1[C@H](C)CC[C@]2(C(=O)O[C@@H]3O[C@H](CO[C@@H]4O[C@H](CO)[C@@H](O[C@@H]5O[C@@H](C)[C@H](O)[C@@H](O)[C@H]5O)[C@H](O)[C@H]4O)[C@@H](O)[C@H](O)[C@H]3O)CC[C@]3(C)C(=CC[C@@H]4[C@@]5(C)C[C@@H](O)[C@H](O)[C@@](C)(CO)[C@@H]5CC[C@]43C)[C@H]12
solubility (mole fraction)
Conditions | in ethanol | in methanol | in n-butanol | in n-propanol | in water
278.15 K | – | 0.000902 | – | – | –
283.15 K | – | 0.000904 | – | – | –
288.15 K | – | 0.000973 | – | – | –
293.15 K | – | 0.00103 | – | – | –
298.15 K | 0.00014 | 0.00113 | 2.44e-05 | 5.2e-05 | 1.9e-06
303.15 K | 0.000142 | 0.00122 | 2.93e-05 | 6.06e-05 | 2.1e-06
308.15 K | 0.000146 | 0.00139 | 3.45e-05 | 6.78e-05 | 2.5e-06
313.15 K | 0.000152 | 0.0016 | 4.22e-05 | 8.06e-05 | 3.1e-06
318.15 K | 0.000165 | 0.00182 | 5.1e-05 | 9.61e-05 | 4.2e-06
323.15 K | 0.000176 | 0.00216 | 6.36e-05 | 0.000119 | 5.4e-06
328.15 K | 0.000195 | 0.00253 | 8.03e-05 | 0.000144 | 7.1e-06
333.15 K | 0.000217 | – | 0.000101 | 0.000181 | 1.02e-05
338.15 K | – | – | 0.000132 | 0.00023 | –
343.15 K | – | – | 0.000175 | 0.000304 | –
